Assays:
PRL = molecular target: T1, PRL (Homo sapiens, UniProt P01236); test: Detection of PRL-CypB complexes by co-immunoprecipitation; type: binding; conditions: for interaction with PRL (co-immunoprecipitation): purified epitope-tagged recombinant proteins admixed, reducing agent or divalent cation
T1 construct: Full length PRL cDNA was generated by PCR; made in house; host or cells: Drosophila S2 cells
T1 sequence (P01236 29-227): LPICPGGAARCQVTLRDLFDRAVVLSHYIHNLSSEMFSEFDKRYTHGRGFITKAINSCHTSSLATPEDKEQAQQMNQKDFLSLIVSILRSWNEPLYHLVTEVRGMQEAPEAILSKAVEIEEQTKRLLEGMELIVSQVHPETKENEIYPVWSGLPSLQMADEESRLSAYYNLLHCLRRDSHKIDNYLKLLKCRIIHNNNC
Procedure: Complexes were immunoprecipitated by the addition of 1 μg of polyclonal anti-histidine antibody (#sc-803, Santa Cruz Biotech) for one hour followed by roatation for one hour with 50 μl Protein-A beads. Precipiated complexes were separated by 15% SDS-PAGE and transferred to PVDF. Immunoblots were blocked for one hour at room temperature with 5% milk in PBS containing 1% TWEEN-20 (PBST) and immunoblotted with a monoclonal anti-myc antibody (1:1000, mAb 9E10) for one hour. Immunoblots were analyzed by incubation with an anti-mouse secondary antibody conjugated to horseradish peroxidase (1:2000, Boehringer Mannheim) for one hour followed by incubation with ECL Plus (Amersham Pharmacia Biotech) amnd exposure to Biomax film (Kodak).

Nb2 cells = test: Nb2 cell proliferation (3H-thymidine) to assess CypB modulation of somatolactogenic action; type: cell-based, rat; conditions: for enhancement of PRL-driven growth compared to cultures that received only PRL: Nb2 cells, added to PRL-containing medium, most prominent at 5-10 mM CypB and 50 pM PRL
Procedure: (§1) The effect of exogenous CypB on PRL-driven proliferation was examined with the rat Nb2 T-cell and the human T47D breast cancer line. […] This dose-dependent biphasic effect was most prominent at physiologic concentrations (5-10 mM) of CypB and PRL (50 pM) found in human serum. […] To determine the effect of CypB on cellular growth driven by the larger family of cytokines, to which PRL belongs, proliferation driven by interleukin-2 (IL-2), IL-3 and GH was examined.
Nb2-cells (5×10^4; PRL-dependent, rat T-lymphoma) were plated in each well of 96 well plates in a defined DMEM-serum free medium (0.1 mM 2-mercaptoethanol, 1% penicillin/streptomycin, and 1% ITS+(Calbiochem)). Cells were rested for 24 hours at 37° C. in this defined medium in the absence of PRL before the addition of 5-500 pM PRL (either as human pituitary isolated PRL, National Hormone and Pituitary Program, NIDDK; recombinant human PRL from E. coli, Genzyme; or recombinant human PRL from Drosophila S2 cells) alone or premixed with 1-2000 fold excess of purified CypB. Parallel studies were performed using human pituitary-derived GH (National Hormone and Pituitary Program, NIDDK). Cultures were incubated for 48 hours at 37° C. and proliferation was evaluated by the addition of 0.5 μCi of ^3H-thymidine for four hours followed by harvesting and scintillography. When stimulated with PRL alone, Nb2 cells yield sigmoid shaped growth curves that plateau at approximately 2 ng PRL/ml.

[1] = tested on: T47D human breast cancer cells; test: Nuclear retrotranslocation of PRL by indirect anti-PRL immunofluorescence; type: cell-based; conditions: defined T47D culture medium containing the co-mitogen EGF
Procedure: Experiments were performed to examine the ability of CypB to enhance nuclear retrotranslocation of PRL, and thereby PRL-driven proliferation.
The role of this sequence in the CypB-mediated retrotranslocation of PRL, and its associated enhancement of growth was tested by mutagenic approaches. The putative nuclear localization sequence of CypB was deleted in the mutant CypB-NT.

[2] = tested on: IL-2- and IL-3-driven proliferation; test: IL-2- and IL-3-driven proliferation with added CypB; type: cell-based; conditions: varying concentration of CypB
Procedure: as §1

Substance | interaction with PRL (co-immunoprecipitation) (PRL) | enhancement of PRL-driven growth compared to cultures that received only PRL (Nb2 cells) | interaction with PRL in human serum (co-immunoprecipitation; binding to sepharose-conjugated recombinant CypB) (PRL; human serum) | enhancement of PRL-induced proliferation (Nb2 cells; cell line not stated) | enhancement of GH-driven proliferation compared to GH alone (Nb2 cells; physiological concentrations of CypB, human pituitary-derived GH) | T47D nuclei exhibiting anti-PRL immunofluorescence [1] | effect on IL-2-driven proliferation [2] | effect on IL-3-driven proliferation [2]
CypA: recombinant form of the highly homologous cyclophilin family member [reference compound] | failed to interact with PRL | did not result in any potentiation | – | – | – | – | – | –
CypB: cyclophilin family cis-trans peptidyl prolyl isomerase; recombinant His-tagged wild-type protein (SEQ ID NO: 1) | direct interaction of CypB with PRL | eight-fold | direct co-immunoprecipitation of PRL with CypB from human serum | failed to enhance PRL-induced proliferation | forty-fold | 95-100% | Neither IL-2- nor IL-3-driven proliferation was altered | Neither IL-2- nor IL-3-driven proliferation was altered

Reference: patent publication US7902341B2, “Methods and compositions for modulating somatolactogenic functions” (Trustees of the University of Pennsylvania, priority 1999, dated 2011)
